According to ChEMBL document CHEMBL1165912, “Synthesis and binding analysis of unique AG2 pentasaccharide to human Siglec-2 using NMR techniques” (Bioorg Med Chem, 2010):

Biological target: T1, B-cell receptor CD22 (Homo sapiens, UniProt P20273)
T1 sequence (P20273 whole entry): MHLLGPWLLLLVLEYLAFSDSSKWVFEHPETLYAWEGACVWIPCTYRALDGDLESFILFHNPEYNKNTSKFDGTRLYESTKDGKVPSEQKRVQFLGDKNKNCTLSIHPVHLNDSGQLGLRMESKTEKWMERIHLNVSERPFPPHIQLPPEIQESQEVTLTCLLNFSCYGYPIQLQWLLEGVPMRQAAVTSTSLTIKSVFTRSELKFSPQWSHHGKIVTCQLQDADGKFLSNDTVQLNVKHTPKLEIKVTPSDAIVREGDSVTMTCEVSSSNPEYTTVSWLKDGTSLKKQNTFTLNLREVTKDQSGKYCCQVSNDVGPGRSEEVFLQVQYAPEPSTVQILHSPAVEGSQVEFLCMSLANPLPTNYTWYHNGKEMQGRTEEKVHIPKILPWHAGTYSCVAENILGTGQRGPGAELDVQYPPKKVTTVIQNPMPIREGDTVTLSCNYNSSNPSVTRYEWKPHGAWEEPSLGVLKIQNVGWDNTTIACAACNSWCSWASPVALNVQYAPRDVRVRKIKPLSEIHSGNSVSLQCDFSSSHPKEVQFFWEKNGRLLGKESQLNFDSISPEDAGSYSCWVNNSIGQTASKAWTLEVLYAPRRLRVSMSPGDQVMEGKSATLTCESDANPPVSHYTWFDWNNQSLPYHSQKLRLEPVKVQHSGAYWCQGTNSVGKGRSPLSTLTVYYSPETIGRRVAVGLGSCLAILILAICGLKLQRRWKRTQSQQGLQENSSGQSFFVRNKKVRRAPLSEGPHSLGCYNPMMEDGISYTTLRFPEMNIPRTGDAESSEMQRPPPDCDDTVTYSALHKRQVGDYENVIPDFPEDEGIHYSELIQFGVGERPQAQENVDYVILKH
Test: Binding affinity to human SIGLEC2 by saturation transfer difference-titration assay

Kd: 2000 µM
SMILES: CC(=O)N[C@H]1[C@@H]([C@H](O)[C@H](O)CO)O[C@@](O[C@H]2[C@@H](O)[C@@H](CO)O[C@@H](O[C@H]3[C@H](O)[C@@H](O)[C@H](OCC[Si](C)(C)C)O[C@@H]3CO)[C@@H]2O)(C(=O)O)C[C@@H]1O[C@H]1O[C@H](CO)[C@H](O)[C@H](O[C@@H]2O[C@@H]([C@H](O)CO)[C@H](O)[C@H]2O)[C@H]1O (stereo in doubt)
